# Test results published in US20130058977A1, “COMPOSITIONS AND METHODS RELATED TO INDUCED TOLEROGENIC DENDRITIC CELLS EXTERNALLY LOADED WITH MHC CLASS I-RESTRICTED EPITOPES” (Selecta Biosciences, Inc., priority 2011, published 2013).
# Tested on: TCR transgenic OTI cells
# Assay: External loading of MHC Class I-restricted epitopes onto itDCs, read out as Phospho-Zap-70 in OTI cells
# Format: cell-based
# Conditions: dendritic cells externally loaded on ice for 30 minutes; mixed with OTI cells for 30 min at 37 C; pZap70 staining
# Experimental: Dendritic cells were externally loaded on ice for 30 minutes with MHC Class I-restricted peptides from Ovalbumin recognized by TCR transgenic OTI cells. DC were washed and mixed with OTI cells for 30 min in complete media at 37 C, 5% CO2. Cells were stained with conjugated antibodies specifically recognizing TCR. After fixation and permeabilization with paraformaldehyde and methanol, cells were labelled with monoclonal antibodies specific for the phosphorylated (activated) form of the Zeta-chain-associated protein kinase 70 (Phospho-Zap-70). Expression of pZap70 is directly proportional to the amount of stimulatory signal delivered through the TCR to T cells.
substance,measurement,value
SINFEKL [MHC Class I-restricted peptide from Ovalbumin recognized by TCR transgenic OTI cells],loading of a MHC Class I-restricted epitope onto itDCs,successful loading
